The results in this text go back to patent US20230339900A1, “CASEIN KINASE 1 DELTA MODULATORS” (Janssen Pharmaceutica NV, priority 2020, published 2023).

Test [1] deals with human CSNK1D tagged with nanoluciferase (Homo sapiens (Human), UniProt P48730). The test is described as follows: Whole Cell nBRET CSNK1D Binding Assay. The note with it: living CHO cells stably expressing human CSNK1D-nanoluciferase; NanoBret tracer 130 nM; 2 hours 37° C.; read-out: CSNK1D BRET IC50. The procedure:
This cellular binding assay uses a bioluminescence resonance energy transfer to measure human CSNK1D binding activity in living Chinese Hamster Ovary (CHO) cells that are stably expressing human CSNK1D tagged with nanoluciferase. The cells were grown to confluency in growth media (DMEM:F12, 50 u/mLPen/Strep, […] glutamine, and 0.6 mg/mL G418) in 10 cm^2 dishes. Cells were seeded onto white, opaque 384-well plates (Corning, cat #3704) at a density of 8,000 cells/well in serum-free OptiMEM and left to incubated overnight at 37° C., […]. The next day, test compounds were added in a dose response to the plate followed by a NanoBret tracer (130 nM). The plate is mixed on an orbital shaker for 30 seconds, then placed in a 37° C. incubator for 2 hours. NanoBret Nano-Glo Substrate solution (20 μL) is added to all wells and incubated for 3 minutes at room temperature. Donor (450 nm) and acceptor (630 nm) emissions are then measured within 10 minutes using a ClarioStar plate reader. The data is used to calculate millibret units, defined as (E630/E450)*1000. Bret emissions are then graphed against the log of compound concentrations and these graphs are used to determine the IC50 of each compound.
(In general: In BRET a luciferase serves as donor, and the signal depends on an acceptor being close.)

For test [2], the target named is human recombinant GST cleaved CSNK1D (Homo sapiens (Human), UniProt P48730). The test is described as follows: Purified enzyme assay (ADP-Glo Kinase Assay). Type of test: biochemical. The note with it: 2 nM CSNK1D, peptide substrate 150 μM, ATP 20 μM, 45 minutes room temperature. The protocol: In this assay, CSNK1D phosphorylates a substrate peptide PLSRTL-pS-VASLPGL in the presence of ATP. […] This assay monitors CSNK1D kinase activity by measuring the amount of ADP produced in the assay. A substrate mix is prepared by diluting peptide substrate (final concentration 150 μM) with ATP (final concentration 20 μM) in assay buffer (50 mM Tris/HCl pH 7.4+10 mM MgCl2+1 mM DTT+0.1% BSA). The substrate mix is added to each well of a low volume, 384-well, white opaque plate. Test compounds were diluted in HBSS and added in a dose-response to the plate. To start the reaction, 2 nM of constitutively active human recombinant GST cleaved CSNK1D (University of Dundee, clone DU 19064, stored at 0.28 mg/mL in 50 mM Tris/HCl pH 7.5, 150 mM NaCl, 270 mM Sucrose, 0.1 mM EGTA, 0.1% 2-mercaptoethanol, 0.02% Brij-35.1 mM benzamidine, 0.2 mM PMSF) was added to each well and the plate centrifuged for 5 minutes at 1500 rpm. The total volume of each reaction is 5 ul (2 μL of substrate mix, 1 μL of diluted compounds, and 2 μL of human recombinant CSNK1D). The plates are incubated for 45 minutes at room temperature.
Sequence of human recombinant GST cleaved CSNK1D (P48730 whole entry): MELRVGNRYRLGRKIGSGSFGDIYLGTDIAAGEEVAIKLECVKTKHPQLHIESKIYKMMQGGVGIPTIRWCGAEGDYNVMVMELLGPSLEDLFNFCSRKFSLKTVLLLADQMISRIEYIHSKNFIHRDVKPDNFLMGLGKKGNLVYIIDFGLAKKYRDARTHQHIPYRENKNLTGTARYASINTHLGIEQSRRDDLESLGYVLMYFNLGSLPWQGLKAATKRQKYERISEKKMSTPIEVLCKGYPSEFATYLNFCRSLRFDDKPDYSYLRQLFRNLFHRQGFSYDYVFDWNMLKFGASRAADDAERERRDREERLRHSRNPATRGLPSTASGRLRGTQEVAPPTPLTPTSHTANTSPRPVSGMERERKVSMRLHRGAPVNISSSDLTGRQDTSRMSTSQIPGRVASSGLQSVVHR
ADP was quantified using the ADP-Glo™ Kinase Assay. ADP-Glo Reagent (5 μL) was added to each well. After a 1 hour incubation at room temperature, Kinase Detection Reagent (10 μL) was added to each well and incubated for 30 minutes. Luminescence was measured on the Perkin Elmer Wallac EnVision 2104 Multi-label Reader. The raw data from the Envision is used to calculate percent activity.

Sequence of human CSNK1D tagged with nanoluciferase (P48730 whole entry): as above

Consider `Cn1cc(-c2c(C#N)cnc3[nH]ccc23)c(-c2ccc(F)cn2)n1` [Example 89, 4-[3-(5-Fluoro-2-pyridyl)-1-methyl-pyrazol-4-yl]-1H-pyrrolo[2,3-b]pyridine-5-carbonitrile], for which the IC50 – broadly, the point on the concentration scale where inhibition reaches its midpoint – in test [1] is 71 nM. Besides, the AC50 (usually the midpoint of the concentration-response curve, whichever way the signal moves) in test [2] was 3 nM.
For `Cn1cc(-c2ccnc3[nH]cc(CC#N)c23)c(-c2ccc(F)cn2)n1` [Example 120, 2-[4-[3-(5-Fluoro-2-pyridyl)-1-methyl-pyrazol-4-yl]-1H-pyrrolo[2,3-b]pyridin-3-yl]acetonitrile] the same measures were 8710 nM and 31 nM.
As for `Cn1cc(-c2c(C(F)(F)F)cnc3[nH]ccc23)c(-c2ccc(F)cn2)n1` [Example 87, 4-[3-(5-Fluoro-2-pyridyl)-1-methyl-pyrazol-4-yl]-5-(trifluoromethyl)-1H-pyrrolo[2,3-b]pyridine], the IC50 in test [1] stood at 94 nM. Moreover, the AC50 in test [2] was 4 nM.
The matching figures for `Cn1cc(-c2ccnc3cc(OC(F)(F)F)ccc23)c(-c2ccc(F)cn2)n1` [Example 109, 4-[3-(5-Fluoro-2-pyridyl)-1-methyl-pyrazol-4-yl]-7-(trifluoromethoxy)quinoline]: 468 nM and 41 nM.
The matching figures for `Cc1ccnc2c(-c3cn(C)nc3-c3ccc(F)cn3)ccnc12` [Example 133, 4-[3-(5-Fluoro-2-pyridyl)-1-methyl-pyrazol-4-yl]-8-methyl-1,5-naphthyridine]: above 10000 nM and 7030 nM.
With `Cn1cc(-c2ccnc3[nH]ccc23)c(-c2ccc(OC(F)F)nc2)n1` [Example 23, 4-[3-[6-(Difluoromethoxy)-3-pyridyl]-1-methyl-pyrazol-4-yl]-1H-pyrrolo[2,3-b]pyridine], the concentration for half-maximal inhibition (IC50) in test [1] was above 10000 nM. Further, the AC50 in test [2] was found to be 551 nM.
`Cn1cc(-c2ccnc3[nH]ccc23)c(-c2ccc(F)nc2)n1` [Example 28, 4-[3-(6-Fluoro-3-pyridyl)-1-methyl-pyrazol-4-yl]-1H-pyrrolo[2,3-b]pyridine]: the IC50 in test [1] came out at 165 nM. Besides, the half-maximal activity concentration (AC50) in test [2] amounted to 8 nM.
For `Cn1cc(-c2cc(N)nc3[nH]ccc23)c(-c2ccc(F)cn2)n1` [Example 119, 4-[3-(5-Fluoro-2-pyridyl)-1-methyl-pyrazol-4-yl]-1H-pyrrolo[2,3-b]pyridin-6-amine] the same measures were 32 nM and 2 nM.
For `Cn1cc(-c2ccnc3[nH]c(C4(O)CCOC4)cc23)c(-c2ccc(F)cn2)n1` (racemic) [Example 96, (R/S)-3-(4-(3-(5-Fluoropyridin-2-yl)-1-methyl-1H-pyrazol-4-yl)-1H-pyrrolo[2,3-b]pyridin-2-yl)tetrahydrofuran-3-ol] the same measures were 148 nM and 4 nM.
The matching figures for `Cn1cc(-c2ccnc3[nH]ccc23)c(-c2cncn2C)n1` [Example 10, 4-(1-Methyl-3-(1-methyl-1H-imidazol-5-yl)-1H-pyrazol-4-yl)-1H-pyrrolo[2,3-b]pyridine]: above 10000 nM and 2280 nM.
Take `Cn1cc(-c2ccnc3[nH]ccc23)c(-c2cscn2)n1` [Example 13, 4-(1-Methyl-4-(1H-pyrrolo[2,3-b]pyridin-4-yl)-1H-pyrazol-3-yl)thiazole]: the IC50 in test [1] turned out to be 626 nM. The AC50 in test [2] stood at 28 nM.
For `Cn1cc(-c2ccnc3c(F)cccc23)c(-c2ccc(F)cn2)n1` [Example 147, 8-Fluoro-4-[3-(5-fluoro-2-pyridyl)-1-methyl-pyrazol-4-yl]quinoline], the concentration for half-maximal inhibition (IC50) in test [1] is above 10000 nM. In addition, the AC50 in test [2] was found to be 1100 nM.
For the compound `Cc1cc(-c2nn(C)cc2-c2cc(C)nc3[nH]ncc23)ccn1` [Example 135, 6-Methyl-4-[1-methyl-3-(2-methyl-4-pyridyl)pyrazol-4-yl]-1H-pyrazolo[3,4-b]pyridine], the IC50 in test [1] amounted to 7120 nM. In test [2], the AC50 was found to be 168 nM.
The matching figures for `Cn1cc(-c2ccnc3c2CCCN3)c(-c2ccc(F)cn2)n1` [Example 114, 5-[3-(5-Fluoro-2-pyridyl)-1-methyl-pyrazol-4-yl]-1,2,3,4-tetrahydro-1,8-naphthyridine]: 4230 nM and 166 nM.
As for `COc1nc(-c2nn(C)cc2-c2cc(C)nc3[nH]ncc23)ccc1F` [Example 41, 4-(3-(5-Fluoro-6-methoxypyridin-2-yl)-1-methyl-1H-pyrazol-4-yl)-6-methyl-1H-pyrazolo[3,4-b]pyridine], the IC50 in test [1] turned out to be 5000 nM. Further, the AC50 in test [2] was 107 nM.
`COc1ncc(-c2nn(C)cc2-c2cc(C)nc3[nH]ncc23)cc1C` [Example 141, 4-[3-(6-Methoxy-5-methyl-3-pyridyl)-1-methyl-pyrazol-4-yl]-6-methyl-1H-pyrazolo[3,4-b]pyridine]: the IC50 in test [1] is 2020 nM. Also, in test [2], the half-maximal activity concentration (AC50) amounted to 44 nM.
The matching figures for `Cc1cc(-c2cn(C)nc2-c2ccc(Cl)cn2)c2cn[nH]c2n1` [Example 26, 4-(3-(5-Chloropyridin-2-yl)-1-methyl-1H-pyrazol-4-yl)-6-methyl-1H-pyrazolo[3,4-b]pyridine]: 2090 nM and 58 nM.
In the case of `Cn1cc(-c2c(F)cnc3[nH]ccc23)c(-c2ccc(F)cn2)n1` [Example 78, 5-Fluoro-4-[3-(5-fluoro-2-pyridyl)-1-methyl-pyrazol-4-yl]-1H-pyrrolo[2,3-b]pyridine], the IC50 in test [1] came to 50 nM. Further, the AC50 in test [2] worked out at 4 nM.
For the compound `Cn1cc(-c2ccnc3c2CCNC3)c(-c2ccc(F)cn2)n1` [Example 113, 4-[3-(5-Fluoro-2-pyridyl)-1-methyl-pyrazol-4-yl]-5,6,7,8-tetrahydro-1,7-naphthyridine], the IC50 in test [1] was above 10000 nM. The AC50 in test [2] was 144 nM.
Regarding `Cc1cc(-c2cn(C)nc2-c2cncc(Cl)c2)c2cn[nH]c2n1` [Example 139, 4-[3-(5-Chloro-3-pyridyl)-1-methyl-pyrazol-4-yl]-6-methyl-1H-pyrazolo[3,4-b]pyridine], the IC50 in test [1] came to 506 nM. Further, the AC50 in test [2] was found to be 18 nM.
`Cn1cc(-c2ccnc3[nH]cc(CC4CCOC4)c23)c(-c2ccc(F)cn2)n1` (racemic) [Example 97, (R/S)-4-[3-(5-Fluoro-2-pyridyl)-1-methyl-pyrazol-4-yl]-3-(tetrahydrofuran-3-ylmethyl)-1H-pyrrolo[2,3-b]pyridine]: the IC50 in test [1] is above 10000 nM. In addition, the half-maximal activity concentration (AC50) in test [2] came to 384 nM.
As for `Cn1cc(-c2ccnc3cc(C(F)(F)F)ccc23)c(-c2ccc(F)cn2)n1` [Example 107, 4-[3-(5-Fluoro-2-pyridyl)-1-methyl-pyrazol-4-yl]-7-(trifluoromethyl)quinoline], in test [1], the IC50 stood at 264 nM. In addition, in test [2], the AC50 is 31 nM.
The matching figures for `Cc1cc(-c2cn(C)nc2-c2ccc(F)c(C)n2)c2cn[nH]c2n1` [Example 40, 4-(3-(5-Fluoro-6-methylpyridin-2-yl)-1-methyl-1H-pyrazol-4-yl)-6-methyl-1H-pyrazolo[3,4-b]pyridine]: 288 nM and 19 nM.
Take `Cn1cc(-c2ccnc3c2ccn3C)c(-c2ccc(F)cn2)n1` [Example 144, 4-[3-(5-Fluoro-2-pyridyl)-1-methyl-pyrazol-4-yl]-1-methyl-pyrrolo[2,3-b]pyridine]: in test [1], the IC50 worked out at 1720 nM. Besides, in test [2], the AC50 is 77 nM.
The matching figures for `Cn1cc(-c2ccnc3[nH]cc(C4COC4)c23)c(-c2ccc(F)cn2)n1` [Example 93, 4-[3-(5-Fluoro-2-pyridyl)-1-methyl-pyrazol-4-yl]-3-(oxetan-3-yl)-1H-pyrrolo[2,3-b]pyridine]: 3660 nM and 123 nM.
Turning to `Cn1cc(-c2ccnc3[nH]ccc23)c(-c2nccn2C)n1` [Example 11, 4-(1-Methyl-3-(1-methyl-1H-imidazol-2-yl)-1H-pyrazol-4-yl)-1H-pyrrolo[2,3-b]pyridine], the IC50 in test [1] was 4360 nM. In test [2], the AC50 was found to be 111 nM.
The matching figures for `Cc1ccc(-c2nn(C)cc2-c2ccnc3[nH]ccc23)nc1` [Example 31, 4-[1-Methyl-3-(5-methyl-2-pyridyl)pyrazol-4-yl]-1H-pyrrolo[2,3-b]pyridine]: 3120 nM and 50 nM.
